Test [1] relates to S. aureus cells. As to the kind of experiment: Bacterial growth (CFU) of S. aureus culture grown with peptides. The test is classed as cell-based. To be noted: in-vitro culture grown 2.5 hours with peptide, FIG. 5a. The procedure: (§1) RNAIII synthesis and bacterial growth: Cultures of S. aureus (20 million cells in a volume of 30 microliters) containing an expression construct for expression of the fusion protein maiii::blaZ (described in Gov, Y. et al., 2001. Peptides. 22: 1609-20 were grown for 2.5 hours with 5 microliters peptide solution or control buffer. A 5 microliter sample was taken from the cultures, diluted in saline, and streaked on LB agar plates to quantitate CFUs. The remainder of the cultures were used to determine RNAIII synthesis (beta-lactamase activity). This was performed by adding a substrate of beta-lactamase (nitrocefin), and determining OD 490 nm/OD 650 nm, as previously described (Gov, Y. et al., 2001. Peptides. 22: 1609-20).

The subject of test [2] is RNAIII synthesis. Description: RNAIII synthesis (beta-lactamase reporter, nitrocefin). The test is classed as cell-based, S. aureus. The procedure:
as §1

For test [3], the system named is S. aureus. Description: MIC assayed against S. aureus (Table 1). The test is classed as cell-based.
In test [4] the test system is methicillin-resistant S. epidermidis (MRSE). It counts as in vivo. To be noted: rats, MRSE challenge, explanted at 7 days. From the text:
(§2) Animals: Adult male Wistar rats, 250-300 gr (I.N.R.C.A. I.R.R.C.S. animal facility, Ancona) were used, with 15 animals per experimental group.
(§3) Mammalian graft infection model: Rats were anesthetized and their hair of the back was shaved and the skin cleansed with 10 percent povidone-iodine solution. One subcutaneous pocket was made on each side of the median line by a 1.5 cm incision. Aseptically, 1 square centimeter sterile albumin-sealed Dacron™ grafts (Albograft™, Sorin Biomedica Cardio, S.p.A., Saluggia VC, Italy) were implanted into the pockets. Prior to implantation grafts were soaked for 20 minutes in sterile antibiotic solutions. The pockets were closed by means of skin clips and saline solution (1 mL) containing methicillin-resistant S. aureus (MRSA) or S. epidermidis (MRSE) at a concentration of 2×10^7 colony-forming units (CFU)/mL was inoculated onto the graft surface by using a tuberculin syringe to create a subcutaneous fluid-filled pocket. The animals were returned to individual cages and thoroughly examined daily. All grafts were explanted at 7 days following implantation.
(§4) Assessment of the infection: The explanted grafts were placed in sterile tubes, washed in sterile saline solution, placed in tubes containing 10 mL of phosphate-buffered saline solution and sonicated for 5 minutes to remove the adherent bacteria from the grafts (Balaban, N. et al, 2003. Kidney Int. 63: 340-345). Quantitation of viable staphylococci was performed by culturing serial dilutions (0.1 mL) of the bacterial suspensions on blood agar plates at 37 degrees centigrade for 48 hours. The organisms were quantitated by counting the number of colony-forming units (CFUs) per plate. The limit of detection for this method was approximately 10 CFU/mL.
(§5) Statistical analysis: MIC values are presented as the geometric mean of three separate experiments. […] Significance was accepted when the P value was less than/equal to 0.05.

Test [5] deals with methicillin-resistant S. aureus (MRSA). The test is classed as in vivo. Conditions: rats, MRSA challenge, explanted at 7 days.
Description: as §2, §3, §4, §5

Where [6] appears, read: graft presoaked in 10 micrograms/mL peptide.
Where [7] appears, read: graft presoaked in 20 micrograms/mL peptide.
Setting [8] is: graft presoaked in 50 micrograms/mL peptide.

≈ marks a conversion by molar mass, not a printed value. Read-outs that look alike come from different tables or passages of the source. Square brackets hold non-standard residues; d marks the D form. Peptide text beside a SMILES is read from it. * marks the point of attachment. Lauroyl = CCCCCCCCCCCC(=O)*; 12Ado = NCCCCCCCCCCCC(=O)O; Decanoyl = CCCCCCCCCC(=O)*; Octanoyl = CCCCCCCC(=O)*; Hexanoyl = CCCCCC(=O)*; Butyryl = CCCC(=O)*

`CC(C)C[C@H](NC(=O)[C@H](C)N)C(=O)N[C@@H](Cc1c[nH]c2ccccc12)C(=O)N[C@@H](CCCCN)C(=O)N[C@H](C(=O)N[C@@H](CC(C)C)C(=O)N[C@@H](CC(C)C)C(=O)N[C@@H](CCCCN)C(=O)N[C@@H](CCCCN)C(=O)N[C@H](C(=O)N[C@@H](CC(C)C)C(=O)N[C@@H](CCCCN)C(=O)N[C@@H](C)C(N)=O)C(C)C)[C@@H](C)O` [DD13] (H-ALWKTLLKKVLKA-NH2; N-terminus assumed): the “Bactericidal activity (CFU counts)” value in test [1] is “potent bactericidal activity”. Besides, the “Inhibition of RNAIII synthesis” value in test [2] (FIG. 5b, at high peptide concentrations mostly attributable to cell death) is “more efficient than RIP”. In test [2] (low peptide concentrations where no cell death occurred (inset FIG. 5b)), the “Effect on RNAIII synthesis at low peptide concentrations” value is listed as “unable to affect RNAIII synthesis”. Further, in test [3], the “MIC (minimal inhibitory concentration)” value worked out at 9 ± 3 µM (≈ 13.6 µg/mL). For the same compound, the “Graft bacterial load (quantitative culture)” value is 5.2×10^2±1.6×10^2 CFU/ml in test [4] (setting [6]); 4.4×10^1±1.3×10^1 CFU/ml in test [4] (setting [7]); “negative quantitative cultures” in test [4] (setting [8]); 5.2×10^2±1.6×10^2 CFU/ml in test [5] (setting [6]); 4.0×10^1±1.7×10^1 CFU/ml in test [5] (setting [7]); “negative quantitative cultures” in test [5] (setting [8]).

Turning to `CC(=O)N[C@@H](C)C(=O)N[C@@H](CC(C)C)C(=O)N[C@@H](Cc1c[nH]c2ccccc12)C(=O)N[C@@H](CCCCN)C(=O)N[C@H](C(=O)N[C@@H](CC(C)C)C(=O)N[C@@H](CC(C)C)C(=O)N[C@@H](CCCCN)C(=O)N[C@@H](CCCCN)C(=O)N[C@H](C(=O)N[C@@H](CC(C)C)C(=O)N[C@@H](CCCCN)C(=O)N[C@@H](C)C(N)=O)C(C)C)[C@@H](C)O` [SEQ ID NO: 1, C2—, —CONH2] (Ac-ALWKTLLKKVLKA-NH2), the “MIC (minimal inhibitory concentration)” value in test [3] worked out at 25 µM (≈ 38.8 µg/mL).

Consider `CCCC(=O)N[C@@H](C)C(=O)N[C@@H](CC(C)C)C(=O)N[C@@H](Cc1c[nH]c2ccccc12)C(=O)N[C@@H](CCCCN)C(=O)N[C@H](C(=O)N[C@@H](CC(C)C)C(=O)N[C@@H](CC(C)C)C(=O)N[C@@H](CCCCN)C(=O)N[C@@H](CCCCN)C(=O)N[C@H](C(=O)N[C@@H](CC(C)C)C(=O)N[C@@H](CCCCN)C(=O)N[C@@H](C)C(N)=O)C(C)C)[C@@H](C)O` [SEQ ID NO: 1, C4—, —CONH2] (Butyryl-ALWKTLLKKVLKA-NH2), for which the “MIC (minimal inhibitory concentration)” value in test [3] is 12 µM (≈ 19 µg/mL).

In the case of `CCCCCC(=O)N[C@@H](C)C(=O)N[C@@H](CC(C)C)C(=O)N[C@@H](Cc1c[nH]c2ccccc12)C(=O)N[C@@H](CCCCN)C(=O)N[C@H](C(=O)N[C@@H](CC(C)C)C(=O)N[C@@H](CC(C)C)C(=O)N[C@@H](CCCCN)C(=O)N[C@@H](CCCCN)C(=O)N[C@H](C(=O)N[C@@H](CC(C)C)C(=O)N[C@@H](CCCCN)C(=O)N[C@@H](C)C(N)=O)C(C)C)[C@@H](C)O` [SEQ ID NO: 1, C6—, —CONH2] (Hexanoyl-ALWKTLLKKVLKA-NH2), the “MIC (minimal inhibitory concentration)” value in test [3] came to 2.2 ± 0.8 µM (≈ 3.54 µg/mL).

Consider `CCCCCCCC(=O)N[C@@H](C)C(=O)N[C@@H](CC(C)C)C(=O)N[C@@H](Cc1c[nH]c2ccccc12)C(=O)N[C@@H](CCCCN)C(=O)N[C@H](C(=O)N[C@@H](CC(C)C)C(=O)N[C@@H](CC(C)C)C(=O)N[C@@H](CCCCN)C(=O)N[C@@H](CCCCN)C(=O)N[C@H](C(=O)N[C@@H](CC(C)C)C(=O)N[C@@H](CCCCN)C(=O)N[C@@H](C)C(N)=O)C(C)C)[C@@H](C)O` [SEQ ID NO: 1, C8—, —CONH2] (Octanoyl-ALWKTLLKKVLKA-NH2), for which the “MIC (minimal inhibitory concentration)” value in test [3] turned out to be 1.5 µM (≈ 2.46 µg/mL).

`CCCCCCCCCC(=O)N[C@@H](C)C(=O)N[C@@H](CC(C)C)C(=O)N[C@@H](Cc1c[nH]c2ccccc12)C(=O)N[C@@H](CCCCN)C(=O)N[C@H](C(=O)N[C@@H](CC(C)C)C(=O)N[C@@H](CC(C)C)C(=O)N[C@@H](CCCCN)C(=O)N[C@@H](CCCCN)C(=O)N[C@H](C(=O)N[C@@H](CC(C)C)C(=O)N[C@@H](CCCCN)C(=O)N[C@@H](C)C(N)=O)C(C)C)[C@@H](C)O` [SEQ ID NO: 1, C10—, —CONH2] (Decanoyl-ALWKTLLKKVLKA-NH2): the “MIC (minimal inhibitory concentration)” value in test [3] came out at 1.5 µM (≈ 2.5 µg/mL).

Take `CCCCCCCCCCCC(=O)N[C@@H](C)C(=O)N[C@@H](CC(C)C)C(=O)N[C@@H](Cc1c[nH]c2ccccc12)C(=O)N[C@@H](CCCCN)C(=O)N[C@H](C(=O)N[C@@H](CC(C)C)C(=O)N[C@@H](CC(C)C)C(=O)N[C@@H](CCCCN)C(=O)N[C@@H](CCCCN)C(=O)N[C@H](C(=O)N[C@@H](CC(C)C)C(=O)N[C@@H](CCCCN)C(=O)N[C@@H](C)C(N)=O)C(C)C)[C@@H](C)O` [SEQ ID NO: 1, C12—, —CONH2] (Lauroyl-ALWKTLLKKVLKA-NH2): the “MIC (minimal inhibitory concentration)” value in test [3] stood at 4.5 ± 1.5 µM (≈ 7.62 µg/mL).

Consider `CC(C)C[C@H](NC(=O)[C@H](C)NC(=O)CCCCCCCCCCCN)C(=O)N[C@@H](Cc1c[nH]c2ccccc12)C(=O)N[C@@H](CCCCN)C(=O)N[C@H](C(=O)N[C@@H](CC(C)C)C(=O)N[C@@H](CC(C)C)C(=O)N[C@@H](CCCCN)C(=O)N[C@@H](CCCCN)C(=O)N[C@H](C(=O)N[C@@H](CC(C)C)C(=O)N[C@@H](CCCCN)C(=O)N[C@@H](C)C(N)=O)C(C)C)[C@@H](C)O` [SEQ ID NO: 1, NC12—, —CONH2] (H-[12Ado]ALWKTLLKKVLKA-NH2), for which the “MIC (minimal inhibitory concentration)” value in test [3] came out at 0.75 µM (≈ 1.28 µg/mL).

In the case of `CC(C)C[C@H](NC(=O)[C@H](Cc1c[nH]c2ccccc12)NC(=O)[C@H](CCCCN)NC(=O)[C@@H](NC(=O)[C@H](CC(C)C)NC(=O)[C@H](CC(C)C)NC(=O)[C@H](CCCCN)NC(=O)[C@H](CCCCN)NC(=O)[C@@H](NC(=O)[C@H](CC(C)C)NC(=O)[C@H](CCCCN)NC(=O)[C@H](C)NC(=O)CCCCCCCCCCCN)C(C)C)[C@@H](C)O)C(=O)N[C@@H](C)C(N)=O` [SEQ ID NO: 2, NC12—, —CONH2], the “MIC (minimal inhibitory concentration)” value in test [3] was 1.5 µM (≈ 2.56 µg/mL).

For the compound `CC(C)C[C@H](NC(=O)[C@H](C)NC(=O)[C@H](CCCCN)NC(=O)CCCCCCCCCCCN)C(=O)N[C@@H](Cc1c[nH]c2ccccc12)C(=O)N[C@@H](CCCCN)C(=O)N[C@H](C(=O)N[C@@H](CC(C)C)C(=O)N[C@@H](CC(C)C)C(=O)N[C@@H](CCCCN)C(=O)N[C@@H](CCCCN)C(=O)N[C@H](C(=O)N[C@@H](CC(C)C)C(=O)N[C@@H](CCCCN)C(=O)N[C@@H](C)C(N)=O)C(C)C)[C@@H](C)O` [SEQ ID NO: 3, NC12—, —CONH2], the “MIC (minimal inhibitory concentration)” value in test [3] was determined as 1.5 µM (≈ 2.75 µg/mL).

Turning to `CCCCCCCCCCCC(=O)N[C@@H](C)C(=O)N[C@@H](CC(C)C)C(=O)N[C@@H](Cc1c[nH]c2ccccc12)C(=O)N[C@@H](CCCCN)C(=O)N[C@H](C(=O)N[C@@H](CC(C)C)C(=O)N[C@@H](CC(C)C)C(=O)N[C@@H](CCCCN)C(=O)N[C@@H](CCCCN)C(=O)N[C@H](C(N)=O)C(C)C)[C@@H](C)O` [SEQ ID NO: 4, C12, —CONH2] (Lauroyl-ALWKTLLKKV-NH2), in test [3], the “MIC (minimal inhibitory concentration)” value was determined as 3 µM (≈ 4.14 µg/mL).

Regarding `CCCCCCCCCCCC(=O)N[C@H](C(=O)N[C@@H](CC(C)C)C(=O)N[C@@H](CC(C)C)C(=O)N[C@@H](CCCCN)C(=O)N[C@@H](CCCCN)C(=O)N[C@H](C(=O)N[C@@H](CC(C)C)C(=O)N[C@@H](CCCCN)C(=O)N[C@@H](C)C(N)=O)C(C)C)[C@@H](C)O` [SEQ ID NO: 5, C12, —CONH2] (Lauroyl-TLLKKVLKA-NH2), in test [3], the “MIC (minimal inhibitory concentration)” value worked out at 1.5 ± 0.75 µM (≈ 1.79 µg/mL).

The values are drawn from patent US20060121083A1 (priority 2003, published 2006).
